Among the data in US10633419B2, “Immunomodulators” (BRISTOL-MYERS SQUIBB COMPANY, priority 2014, dated 2020) are IC50 values, retold here.

pIC50: −log10 of the molar value. Positions of bridges follow the written chain, without caps; N, C: chain ends. Non-standard residues stand in square brackets, D forms with d. Residues, ends and D or L forms follow the SMILES beside them. *: point of attachment. X12 = O=C(O)CCCCCCCCCCCCCCCCCCC(=O)N[C@@H](CCC(=O)NCCCOCCOCCOCCCN*)C(=O)O; X6 = O=C(O)CCCCCCCCCCCCCCCCC(=O)N[C@@H](CCC(=O)NCCCOCCOCCOCCCN*)C(=O)O; X4 = O=C(O)CCCCCCCCCCCCCCCCC(=O)N[C@@H](CC(=O)NCCCOCCOCCOCCCN*)C(=O)O; X18 = O=C(O)CCCCCCCCCCCCCCC(=O)N[C@@H](CC(=O)NCCCOCCOCCOCCCN*)C(=O)O; Trp(1-CH2COOH) = N[C@@H](Cc1cn(CC(=O)O)c2ccccc12)C(=O)O; Hyp = O=C(O)[C@@H]1C[C@@H](O)CN1; dHyp = O=C(O)[C@H]1C[C@H](O)CN1; NMeNle = CCCC[C@H](NC)C(=O)O; dDab = NCC[C@@H](N)C(=O)O; NMeA = CN[C@@H](C)C(=O)O; Dab = NCC[C@H](N)C(=O)O; Dap = NC[C@H](N)C(=O)O

The first assay deals with T1, PD-L1 (Homo sapiens, UniProt Q9NZQ7).
T1 construct: hPDL1(19-239)-TVMV-His; made in house; host or cells: HEK293T
T1 sequence (Q9NZQ7 with tags, fused parts or gaps): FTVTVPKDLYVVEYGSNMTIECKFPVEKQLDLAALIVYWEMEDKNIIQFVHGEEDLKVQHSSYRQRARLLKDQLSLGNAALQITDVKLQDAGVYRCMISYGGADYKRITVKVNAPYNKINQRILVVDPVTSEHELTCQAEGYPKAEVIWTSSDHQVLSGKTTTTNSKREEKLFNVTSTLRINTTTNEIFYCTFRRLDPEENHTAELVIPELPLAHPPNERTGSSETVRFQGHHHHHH
As to the kind of experiment: PD-1/PD-L1 Homogenous Time-Resolved Fluorescence (HTRF) binding assay (PD-1-Ig/PD-L1-His). To be noted: inhibition of PD-1-Ig binding to PD-L1-TVMV-His; value given as number; read-out: HTRF IC50. In a few lines:
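HTRF competition in dPBS with 0.1% BSA and 0.05% Tween-20: 20 nM PD-1-Ig added after 15 min compound pre-incubation with 10 nM PD-L1-His, then another 15 min. Signal (665/620 nm) after 30 min with APC anti-His (20 nM) and Eu anti-Ig (1 nM).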
On the technique in general: TR-FRET usually uses a lanthanide donor and a delayed reading to cut background.
For the molecule `CCCC[C@H]1C(=O)N(C)[C@@H](CCCC)C(=O)N[C@@H](CC(C)C)C(=O)N[C@H](C(=O)NCC(=O)N[C@@H](CC(=O)O)C(=O)N[C@@H](CC(=O)NCCCOCCOCCOCCCNC(=O)C[C@H](NC(=O)CCCCCCCCCCCCCCC(=O)O)C(=O)O)C(=O)O)CSCC(=O)N[C@@H](Cc2ccc(O)cc2)C(=O)N(C)[C@@H](C)C(=O)N[C@@H](CC(N)=O)C(=O)N2CCC[C@@H]2C(=O)N[C@@H](CN)C(=O)N[C@@H](CC(C)C)C(=O)N2C[C@@H](O)C[C@@H]2C(=O)N[C@@H](Cc2c[nH]c3ccccc23)C(=O)N[C@@H](CCN)C(=O)N[C@@H](Cc2cn(CC(=O)O)c3ccccc23)C(=O)N1C` [Example 11240] ({CH2CO}-Y[NMeA]N[dP][Dap]L[dHyp]W[Dab][Trp(1-CH2COOH)][NMeNle][NMeNle]LCGDD(X18)-OH; thioether N-14), the pIC50 was 8.00.

Still in this assay, the particulars now being: inhibition of PD-1-Ig binding to PD-L1-TVMV-His; value given as range class; read-out: HTRF IC50.
`CCCC[C@H]1C(=O)N(C)[C@@H](CCCC)C(=O)N[C@@H](CC(C)C)C(=O)N[C@H](C(=O)NCC(=O)N[C@@H](CC(=O)O)C(=O)NCCCOCCOCCOCCCNC(=O)CC[C@H](NC(=O)CCCCCCCCCCCCCCCCC(=O)O)C(=O)O)CSCC(=O)N[C@@H](Cc2ccc(O)cc2)C(=O)N(C)[C@@H](C)C(=O)N[C@@H](CC(N)=O)C(=O)N2CCC[C@H]2C(=O)N[C@@H](CN)C(=O)N[C@@H](CC(C)C)C(=O)N2C[C@H](O)C[C@H]2C(=O)N[C@@H](Cc2c[nH]c3ccccc23)C(=O)N[C@@H](CCN)C(=O)N[C@@H](Cc2cn(CC(=O)O)c3ccccc23)C(=O)N1C` [Example 11224] ({CH2CO}-Y[NMeA]NP[Dap]L[Hyp]W[Dab][Trp(1-CH2COOH)][NMeNle][NMeNle]LCGD-X6; thioether N-14): the pIC50 is 8.00 to 9.52.

In the case of `CCCC[C@H]1C(=O)N(C)[C@@H](CCCC)C(=O)N[C@@H](CC(C)C)C(=O)N[C@H](C(=O)NCC(=O)N[C@@H](CC(=O)O)C(=O)N[C@@H](CC(=O)NCCCOCCOCCOCCCNC(=O)CC[C@H](NC(=O)CCCCCCCCCCCCCCCCC(=O)O)C(=O)O)C(=O)O)CSCC(=O)N[C@@H](Cc2ccc(O)cc2)C(=O)N(C)[C@@H](C)C(=O)N[C@@H](CC(N)=O)C(=O)N2CCC[C@H]2C(=O)N[C@@H](CN)C(=O)N[C@@H](CC(C)C)C(=O)N2C[C@H](O)C[C@H]2C(=O)N[C@@H](Cc2c[nH]c3ccccc23)C(=O)N[C@@H](CCN)C(=O)N[C@@H](Cc2cn(CC(=O)O)c3ccccc23)C(=O)N1C` [Example 11225] ({CH2CO}-Y[NMeA]NP[Dap]L[Hyp]W[Dab][Trp(1-CH2COOH)][NMeNle][NMeNle]LCGDD(X6)-OH; thioether N-14), the pIC50 is 8.00 to 9.52.

`CCCC[C@H]1C(=O)N(C)[C@@H](CCCC)C(=O)N[C@@H](CC(C)C)C(=O)N[C@H](C(=O)NCC(=O)N[C@@H](CCC(=O)O)C(=O)NCCCOCCOCCOCCCNC(=O)CC[C@H](NC(=O)CCCCCCCCCCCCCCCCCCC(=O)O)C(=O)O)CSCC(=O)N[C@@H](Cc2ccc(O)cc2)C(=O)N(C)[C@@H](C)C(=O)N[C@@H](CC(N)=O)C(=O)N2CCC[C@H]2C(=O)N[C@@H](CN)C(=O)N[C@@H](CC(C)C)C(=O)N2C[C@H](O)C[C@H]2C(=O)N[C@@H](Cc2c[nH]c3ccccc23)C(=O)N[C@@H](CCN)C(=O)N[C@@H](Cc2cn(CC(=O)O)c3ccccc23)C(=O)N1C` [Example 11226] ({CH2CO}-Y[NMeA]NP[Dap]L[Hyp]W[Dab][Trp(1-CH2COOH)][NMeNle][NMeNle]LCGE-X12; thioether N-14): the pIC50 was 8.00 to 9.52.

Regarding `CCCC[C@H]1C(=O)N(C)[C@@H](CCCC)C(=O)N[C@@H](CC(C)C)C(=O)N[C@H](C(=O)N[C@@H](CC(=O)O)C(=O)N[C@@H](CC(=O)NCCCOCCOCCOCCCNC(=O)CC[C@H](NC(=O)CCCCCCCCCCCCCCCCC(=O)O)C(=O)O)C(=O)O)CSCC(=O)N[C@@H](Cc2ccc(O)cc2)C(=O)N(C)[C@@H](C)C(=O)N[C@@H](CC(N)=O)C(=O)N2CCC[C@H]2C(=O)N[C@@H](CN)C(=O)N[C@@H](CC(C)C)C(=O)N2C[C@H](O)C[C@H]2C(=O)N[C@@H](Cc2c[nH]c3ccccc23)C(=O)N[C@@H](CCN)C(=O)N[C@@H](Cc2cn(CC(=O)O)c3ccccc23)C(=O)N1C` [Example 11227] ({CH2CO}-Y[NMeA]NP[Dap]L[Hyp]W[Dab][Trp(1-CH2COOH)][NMeNle][NMeNle]LCDD(X6)-OH; thioether N-14), the pIC50 was 8.00 to 9.52.

Take `CCCC[C@H]1C(=O)N(C)[C@@H](CCCC)C(=O)N[C@@H](CC(C)C)C(=O)N[C@H](C(=O)N[C@@H](CC(=O)O)C(=O)N[C@@H](CCC(=O)NCCCOCCOCCOCCCNC(=O)CC[C@H](NC(=O)CCCCCCCCCCCCCCCCC(=O)O)C(=O)O)C(=O)O)CSCC(=O)N[C@@H](Cc2ccc(O)cc2)C(=O)N(C)[C@@H](C)C(=O)N[C@@H](CC(N)=O)C(=O)N2CCC[C@@H]2C(=O)N[C@@H](CN)C(=O)N[C@@H](CC(C)C)C(=O)N2C[C@@H](O)C[C@@H]2C(=O)N[C@@H](Cc2c[nH]c3ccccc23)C(=O)N[C@@H](CCN)C(=O)N[C@@H](Cc2cn(CC(=O)O)c3ccccc23)C(=O)N1C` [Example 11228] ({CH2CO}-Y[NMeA]N[dP][Dap]L[dHyp]W[Dab][Trp(1-CH2COOH)][NMeNle][NMeNle]LCDE(X6)-OH; thioether N-14): the pIC50 was 7.00 to 8.00.

For `CCCC[C@H]1C(=O)N(C)[C@@H](CCCC)C(=O)N[C@@H](CC(C)C)C(=O)N[C@H](C(=O)NCC(=O)N[C@@H](CC(=O)O)C(=O)N[C@@H](CC(=O)NCCCOCCOCCOCCCNC(=O)C[C@H](NC(=O)CCCCCCCCCCCCCCCCC(=O)O)C(=O)O)C(=O)O)CSCC(=O)N[C@@H](Cc2ccc(O)cc2)C(=O)N(C)[C@@H](C)C(=O)N[C@@H](CC(N)=O)C(=O)N2CCC[C@@H]2C(=O)N[C@@H](CN)C(=O)N[C@@H](CC(C)C)C(=O)N2C[C@@H](O)C[C@@H]2C(=O)N[C@@H](Cc2c[nH]c3ccccc23)C(=O)N[C@@H](CCN)C(=O)N[C@@H](Cc2cn(CC(=O)O)c3ccccc23)C(=O)N1C` [Example 11232] ({CH2CO}-Y[NMeA]N[dP][Dap]L[dHyp]W[Dab][Trp(1-CH2COOH)][NMeNle][NMeNle]LCGDD(X4)-OH; thioether N-14), the pIC50 was 7.00 to 8.00.

Turning to `CCCC[C@H]1C(=O)N(C)[C@@H](CCCC)C(=O)N[C@@H](CC(C)C)C(=O)N[C@H](C(=O)NCC(=O)N[C@@H](CCC(=O)NCCCOCCOCCOCCCNC(=O)C[C@H](NC(=O)CCCCCCCCCCCCCCCCC(=O)O)C(=O)O)C(=O)O)CSCC(=O)N[C@@H](Cc2ccc(O)cc2)C(=O)N(C)[C@@H](C)C(=O)N[C@@H](CC(N)=O)C(=O)N2CCC[C@@H]2C(=O)N[C@@H](CN)C(=O)N[C@@H](CC(C)C)C(=O)N2C[C@@H](O)C[C@@H]2C(=O)N[C@@H](Cc2c[nH]c3ccccc23)C(=O)N[C@@H](CCN)C(=O)N[C@@H](Cc2cn(CC(=O)O)c3ccccc23)C(=O)N1C` [Example 11234] ({CH2CO}-Y[NMeA]N[dP][Dap]L[dHyp]W[Dab][Trp(1-CH2COOH)][NMeNle][NMeNle]LCGE(X4)-OH; thioether N-14), the pIC50 is 8.00 to 9.52.

`CCCC[C@H]1C(=O)N(C)[C@@H](CCCC)C(=O)N[C@@H](CC(C)C)C(=O)N[C@@H](C(=O)NCC(=O)N[C@@H](CC(=O)O)C(=O)NCCCOCCOCCOCCCNC(=O)C[C@H](NC(=O)CCCCCCCCCCCCCCCCC(=O)O)C(=O)O)CSCC(=O)N[C@@H](Cc2ccc(O)cc2)C(=O)N(C)[C@@H](C)C(=O)N[C@@H](CC(N)=O)C(=O)N2CCC[C@@H]2C(=O)N[C@@H](CN)C(=O)N[C@@H](CC(C)C)C(=O)N2C[C@@H](O)C[C@@H]2C(=O)N[C@@H](Cc2c[nH]c3ccccc23)C(=O)N[C@@H](CCN)C(=O)N[C@@H](Cc2cn(CC(=O)O)c3ccccc23)C(=O)N1C` [Example 11237] ({CH2CO}-Y[NMeA]N[dP][Dap]L[dHyp]W[Dab][Trp(1-CH2COOH)][NMeNle][NMeNle]L[dC]GD-X4; thioether N-14): the pIC50 was 7.00 to 8.00.

On to `CCCC[C@H]1C(=O)N(C)[C@@H](CCCC)C(=O)N[C@@H](CC(C)C)C(=O)N[C@@H](C(=O)NCC(=O)N[C@@H](CC(=O)O)C(=O)NCCCOCCOCCOCCCNC(=O)C[C@H](NC(=O)CCCCCCCCCCCCCCC(=O)O)C(=O)O)CSCC(=O)N[C@@H](Cc2ccc(O)cc2)C(=O)N(C)[C@@H](C)C(=O)N[C@@H](CC(N)=O)C(=O)N2CCC[C@@H]2C(=O)N[C@@H](CN)C(=O)N[C@@H](CC(C)C)C(=O)N2C[C@@H](O)C[C@@H]2C(=O)N[C@@H](Cc2c[nH]c3ccccc23)C(=O)N[C@@H](CCN)C(=O)N[C@@H](Cc2cn(CC(=O)O)c3ccccc23)C(=O)N1C` [Example 11238] ({CH2CO}-Y[NMeA]N[dP][Dap]L[dHyp]W[Dab][Trp(1-CH2COOH)][NMeNle][NMeNle]L[dC]GD-X18; thioether N-14), for which the pIC50 was 8.00 to 9.52.

Regarding `CCCC[C@H]1C(=O)N(C)[C@@H](CCCC)C(=O)N[C@@H](CC(C)C)C(=O)N[C@@H](C(=O)NCC(=O)N[C@@H](CC(=O)O)C(=O)N[C@@H](CCC(=O)NCCCOCCOCCOCCCNC(=O)C[C@H](NC(=O)CCCCCCCCCCCCCCC(=O)O)C(=O)O)C(=O)O)CSCC(=O)N[C@@H](Cc2ccc(O)cc2)C(=O)N(C)[C@@H](C)C(=O)N[C@@H](CC(N)=O)C(=O)N2CCC[C@@H]2C(=O)N[C@@H](CN)C(=O)N[C@@H](CC(C)C)C(=O)N2C[C@@H](O)C[C@@H]2C(=O)N[C@@H](Cc2c[nH]c3ccccc23)C(=O)N[C@H](CCN)C(=O)N[C@@H](Cc2cn(CC(=O)O)c3ccccc23)C(=O)N1C` [Example 11241] ({CH2CO}-Y[NMeA]N[dP][Dap]L[dHyp]W[dDab][Trp(1-CH2COOH)][NMeNle][NMeNle]L[dC]GDE(X18)-OH; thioether N-14), the pIC50 is 7.00 to 8.00.

Turning to `CCCC[C@H]1C(=O)N(C)[C@@H](CCCC)C(=O)N[C@@H](CC(C)C)C(=O)N[C@H](C(=O)NCCCOCCOCCOCCCNC(=O)C[C@H](NC(=O)CCCCCCCCCCCCCCC(=O)O)C(=O)O)CSCC(=O)N[C@@H](Cc2ccc(O)cc2)C(=O)N(C)[C@@H](C)C(=O)N[C@@H](CC(N)=O)C(=O)N2CCC[C@@H]2C(=O)N[C@@H](CN)C(=O)N[C@@H](CC(C)C)C(=O)N2C[C@@H](O)C[C@@H]2C(=O)N[C@@H](Cc2c[nH]c3ccccc23)C(=O)N[C@@H](CCN)C(=O)N[C@@H](Cc2cn(CC(=O)O)c3ccccc23)C(=O)N1C` [Example 11242] ({CH2CO}-Y[NMeA]N[dP][Dap]L[dHyp]W[Dab][Trp(1-CH2COOH)][NMeNle][NMeNle]LC-X18; thioether N-14), the pIC50 was 7.00 to 8.00.

One may read the pIC50 as the negative decadic logarithm of the IC50, by convention in mol/L.
